Test [1] has as its target T1, C site of the ACE (human angiotensin converting enzyme mutant with only the C-terminal active site functional) (Homo sapiens, UniProt P12821, H390K/H394K).
T1 construct: The two ACE mutants were expressed as full-length proteins; made in house
Kind of test: Enzymatic assay of inhibition of the C-site of recombinant ACE. It counts as biochemical. As for the experimental part: (§1) The wild-type human angiotensin converting enzyme (ACE) and two mutants, containing only one functional active site, were obtained through stable transfection of chinese hamster ovary cells with the ACE encoding cDNA. The two ACE mutants were expressed as full-length proteins, presenting one of the catalytic sites, N- or C-terminal, inactivated by substitution of the zinc binding histidine residues by lysine residues.
(§2) The enzymatic assays were carried out at 25° C. with the substrate Mca-Ala-Ser-Asp-Lys-DpaOH, in a 50 mM Hepes buffer, pH 6.8, containing 200 mM NaCl and 10 μM ZnCl2. The reactions were continuously monitored by determining the raise in fluorescence at 390 nm emission wave length, and excitation at 340 nm, caused by the cleavage of the substrate (S=Km, 40 μM) by ACE, in a fluorimeter Fluorolite 10000 (Dynatech). The bradykinin potentiating peptides (BPPs) (inhibitors, were pre-incubated with the enzyme 90 min before the addition of the substrate.

For test [2], the target named is T2, N site of the ACE (human angiotensin converting enzyme mutant with only the N-terminal active site functional) (Homo sapiens, UniProt P12821, H988K/H992K).
T2 construct: The two ACE mutants were expressed as full-length proteins; made in house
T2 sequence (P12821 30-1306 H988K/H992K): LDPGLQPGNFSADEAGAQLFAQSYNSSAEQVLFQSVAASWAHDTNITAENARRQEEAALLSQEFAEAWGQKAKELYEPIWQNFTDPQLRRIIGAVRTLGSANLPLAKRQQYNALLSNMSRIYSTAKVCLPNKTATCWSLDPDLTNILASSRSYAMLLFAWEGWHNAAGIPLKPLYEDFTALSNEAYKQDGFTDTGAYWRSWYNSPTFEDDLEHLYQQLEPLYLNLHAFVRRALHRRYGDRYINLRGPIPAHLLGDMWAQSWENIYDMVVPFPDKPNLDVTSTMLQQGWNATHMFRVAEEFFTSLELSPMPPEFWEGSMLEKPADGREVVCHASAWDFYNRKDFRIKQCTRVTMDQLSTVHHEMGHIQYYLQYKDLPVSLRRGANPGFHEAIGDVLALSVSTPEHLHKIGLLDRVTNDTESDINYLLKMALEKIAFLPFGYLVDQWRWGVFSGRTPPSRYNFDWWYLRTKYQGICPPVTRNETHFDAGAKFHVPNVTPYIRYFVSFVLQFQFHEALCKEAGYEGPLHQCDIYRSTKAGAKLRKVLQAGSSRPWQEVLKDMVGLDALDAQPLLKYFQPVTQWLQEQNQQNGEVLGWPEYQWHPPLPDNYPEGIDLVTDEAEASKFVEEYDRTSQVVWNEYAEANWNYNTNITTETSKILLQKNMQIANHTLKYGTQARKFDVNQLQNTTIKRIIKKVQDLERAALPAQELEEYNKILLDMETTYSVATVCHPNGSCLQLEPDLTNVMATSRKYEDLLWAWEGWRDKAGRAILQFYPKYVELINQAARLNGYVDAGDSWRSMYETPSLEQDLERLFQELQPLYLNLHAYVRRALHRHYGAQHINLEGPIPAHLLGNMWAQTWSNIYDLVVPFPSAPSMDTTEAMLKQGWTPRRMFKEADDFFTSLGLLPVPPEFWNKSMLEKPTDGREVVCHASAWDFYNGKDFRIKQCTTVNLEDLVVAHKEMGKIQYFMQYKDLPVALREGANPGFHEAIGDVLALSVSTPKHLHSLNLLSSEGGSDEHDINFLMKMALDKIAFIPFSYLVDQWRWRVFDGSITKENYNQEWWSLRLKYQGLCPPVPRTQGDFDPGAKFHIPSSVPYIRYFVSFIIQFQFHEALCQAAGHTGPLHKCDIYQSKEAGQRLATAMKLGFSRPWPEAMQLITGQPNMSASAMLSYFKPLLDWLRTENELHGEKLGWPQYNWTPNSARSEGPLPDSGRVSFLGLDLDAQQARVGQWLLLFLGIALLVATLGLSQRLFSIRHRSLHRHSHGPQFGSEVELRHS
Kind of test: Enzymatic assay of inhibition of the N-site of recombinant ACE. It counts as biochemical. The note with it: pentapeptide, range stated in words. As for the experimental part: as §1, §2

The next test deals with NEP (Homo sapiens, UniProt P08473). Kind of test: Inhibition of NEP. It counts as biochemical.
Chain of NEP (P08473 whole entry): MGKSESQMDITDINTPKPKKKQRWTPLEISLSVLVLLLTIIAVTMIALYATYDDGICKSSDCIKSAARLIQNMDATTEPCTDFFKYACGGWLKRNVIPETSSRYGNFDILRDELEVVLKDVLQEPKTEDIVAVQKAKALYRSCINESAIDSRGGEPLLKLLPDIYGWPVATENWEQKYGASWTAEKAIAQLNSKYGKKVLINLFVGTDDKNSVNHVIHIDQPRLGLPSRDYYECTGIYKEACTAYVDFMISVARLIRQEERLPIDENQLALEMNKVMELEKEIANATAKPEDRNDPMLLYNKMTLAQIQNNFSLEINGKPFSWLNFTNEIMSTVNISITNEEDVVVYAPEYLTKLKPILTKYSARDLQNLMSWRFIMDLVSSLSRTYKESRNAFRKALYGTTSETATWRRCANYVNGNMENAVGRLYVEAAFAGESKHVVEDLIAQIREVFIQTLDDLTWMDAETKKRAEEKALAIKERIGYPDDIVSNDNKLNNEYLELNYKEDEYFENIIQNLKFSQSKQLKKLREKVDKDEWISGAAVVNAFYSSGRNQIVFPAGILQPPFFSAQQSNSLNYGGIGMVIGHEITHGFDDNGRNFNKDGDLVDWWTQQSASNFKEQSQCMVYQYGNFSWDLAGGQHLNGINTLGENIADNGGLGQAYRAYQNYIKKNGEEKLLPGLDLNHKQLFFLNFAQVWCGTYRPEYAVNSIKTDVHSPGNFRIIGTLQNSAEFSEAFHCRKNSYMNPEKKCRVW
The test system of test [3] is isolated guinea pig ileum. Kind of test: Potentiation of the contractile activity of bradykinin on isolated guinea pig ileum. As for the experimental part:
The potentiating activity of the pools of isolated peptides was tested on the contractile activity of bradykinin on smooth muscle, measured using a preparation of isolated guinea pig ileum. Female guinea pigs with a body weight between 160 and 180 g were used. Before starting the assays, the ileum was kept in TYRODE solution at 37° C. for 30 min. One of the ends of the isolated ileum segment, measuring 1.5 to 2.0 cm, was tied to a semi-ring located at the bottom of a glass container with a capacity of 5 mL, containing the TYRODE physiological solution at 37° C. under constant oxygen bubbling through a capillary. The other extremity of the ileum segment was tied to a previously calibrated registering arm. The tension on the arm was of 1 g, and the ileum contractions were recorded by an REC101 recorder (Pharmacia Biotech).
In order to determine the bradykinin potentiating effect of the samples, a log-dose curve of the effect of bradykinin on the ileum was plotted. Bradykinin activity was determined by measuring the contractions of the isolated guinea pig ileum, and the potentiating activity was expressed as a function of the increase in tissue response to a standard dose of bradykinin.
Pools and fractions were assayed individually and were added 30 seconds before the addition of a simple dose of bradykinin. […]

For test [4], the system named is rat arterial blood pressure. Kind of test: Potentiation of the hypotensive effect of bradykinin in rats. It counts as in vivo. Particulars: concentrations of 300 nM. As for the experimental part:
The hypotensive potentiating activity effect of bradykinin was tested in normotensive and hypertensive male and female Wistar rats, anesthetized with ethylic ether; a cannulae was introduced in the femoral vein for drug administration and in the femoral artery for blood pressure recording. A Gould polygraph was used coupled to a Statham Gould physiological transducer. The arterial pressure variation values were obtained by integration of the areas delimited by the pressure base line, and by comparing them with the values obtained in the control experiment. Toxin effect tests were carried out in normotensive and hypertensive rats by intra-vital microscopy using the mesenteric circulation. The animals were anesthetized, and their body temperature maintained by a heated plate, while the mesentery was trans-illuminated and observed through lenses coupled to a television camera. The vase diameters of these animals were measured with a micrometric screw. Tested substances were administered by a constant flow peristaltic pump or injected in bolus.
Wistar male rats with a body weight between 180 and 220 g were anesthetized with sodic pentabarbital (Hypnol® Cristalia, 50 mg/kg of body weight, intraperitoneally), while the body temperature was maintained between 36.5° C. and 37° C. by a heated plate. […]

Non-standard residues stand in square brackets, D forms with d. Residues, ends and D or L forms follow the SMILES beside them. pGlu = O=C1CC[C@@H](C(=O)O)N1

Broadly, the Ki is a dissociation constant, usually derived from enzyme kinetics or from competition with a known ligand. High values mean lower affinity, low ones higher affinity.

T1 sequence (P12821 30-1306 H390K/H394K): as the sequence (P12821 30-1306 H988K/H992K) above, with H361K, H365K, K959H, K963H counted along it

Regarding `C[C@H](NC(=O)[C@H](Cc1c[nH]c2ccccc12)NC(=O)[C@H](CCCCN)NC(=O)[C@@H]1CCC(=O)N1)C(=O)N1CCC[C@H]1C(=O)O` [<E K W A P, Pyroglutamyl(<E)-Lysine(K)-tryptophane(W)-Alanine(A)-Proline (P)] ([pGlu]KWAP-OH), the “selectivity for the C-site of the ACE” value in test [1] (C site versus N site) was “not presenting a defined selectivity”. The “Ki for the C site of the ACE” value in test [1] (pentapeptide, range stated in words) was “in the μM range”. In addition, the “Ki for the N site of the ACE” value in test [2] is given as “in the μM range”. The same compound registered a Ki at NEP of 50 to 150 µM. Moreover, the “concentrations that potentiate the contractile action of bradykinin on isolated guinea pig ileum” value in test [3] was 15 to 300 nM. In test [4], the “increase in the duration of the hypotensive effect compared to bradykinin alone” value is 5 fold and the “potentiation of the hypotensive effect of bradykinin” value stood at 60%.
